This is an account of results in patent publication US10435388B2, “Selective inhibitors of clinically important mutants of the EGFR tyrosine kinase” (CS PHARMATECH LIMITED, priority 2016, dated 2019).

For one series, the system named is PC9 cells (SM). Nature of the series: PC-9 growth inhibition assay (cell proliferation), Method B. The settings on record: cellular proliferation, several runs. It is filed as cell-based, human.
In the next series the test system is H1975 cells (DM). Kind of series: H1975 inhibition assay (cell proliferation), Method B. It is filed as cell-based. The settings on record: cellular proliferation, several runs.
Another series addresses T1, IGF-1R (Homo sapiens, UniProt P08069).
T1 construct: purchased CARNA BIOSCIENCE 08-141
Nature of the series: IGF-1R inhibition assay (Caliper EZ Reader). The class given is biochemical. The settings on record: enzyme assay. The gist of the method:
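IGF-1R protein and peptide substrate were preincubated 30 min at RT with compound. Phosphorylated and non-phosphorylated fluorescent peptides were separated by mobility shift, and the read-out is the conversion ratio.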

A further series deals with T2, INSR (Homo sapiens, UniProt P06213).
T2 construct: purchased CARNA BIOSCIENCE 08-142
Kind of series: INSR inhibition assay (Caliper EZ Reader). It is filed as biochemical. The settings on record: enzyme assay.

A further series can be described thus: Mouse in vivo PK study. The settings on record: male CDI mice; for F: PO 10 mg/kg vs IV 1 mg/kg; for clearance / half-life / AUC / Cmax: mouse, plasma; for clearance / half-life: IV 1 mg/kg; for half-life: read-out: T1/2 (IV) (converted); for AUC / Cmax: PO 10 mg/kg. How it is done: To determine the drug concentration in plasma of NJB-342, NJB-348 and NJB-463 following intravenous and oral administration in male CDI Mice, to get the pharmacokinetic profile and PK parameters
Test animals: healthy male CDI mice (body weight 20-30 g, 18 mice, free access to food and water), provided by Sibeifu laboratory.
Dose Level and dose route: dosed the animals via intravenous injection from tail vein for IV group (1 mg/kg, 5 mL/kg, 10% DMSO/40% PEG400/50% water), dosed the animals via oral gavage for PO group (10 mg/kg, 10 mL/kg, (10% DMSO/40% PEG400/50% water), respectively.
Samples collection: the healthy animals were used, weighed the bodyweight and marked at tail and cage card prior to dosing. Blood samples (0.03 mL per time point) were collected from dorsal metatarsal vein at 0.083, 0.25, 0.5, 1, 2, 4, 8, 24 h post dose for IV group and at 0.25, 0.5, 1, 2, 4, 8, 24 h post dose for PO group, the terminal time point was collected from heart (˜0.3 mL). The blood samples were put into the tube with heparin-Na coated and then put on the cold box, centrifuged at 4° C. 4000 g, 5 minutes immediately after collecting all samples per time point to get plasma. The plasma samples were stored in a freezer at −75±15° C. prior to analysis.

The test system of another series is A431 cells (WT). Nature of the series: A431 inhibition assay (cell proliferation), Method B. The class given is cell-based, human. The settings on record: cellular proliferation, several runs. As for the experimental part: Cell Proliferation Assays—Method B
A431 Inhibition Assay, (Cell Proliferation).
The rest procedure was conducted in the same manner as described above for H1975 cells.

The test system of series [1] is p-EGFR in PC9 cells (Exon 19 deletion EGFR). Kind of series: Exon19 deletion EGFR (activating single mutant) PC-9 cellular autophosphorylation assay. It is filed as cell-based, human. The settings on record: Homo sapiens, PC-9, 2 h, 2 h treatment, ELISA. How it is done:
(§1) Cellular EGFR Autophosphorylation Assays.
The human lung cell line PC9 (Exon 19 deletion EGFR) is obtained from the American type Culture Collection. […] Cells are grown in a humidified incubator at 37° C. with 5% CO2, Assays to measure cellular phosphorylation of endogenous p-EGFR in cell Iysates are carried out according to the protocol described in the R&D Systems DuoSet IC Human Phospho-EGF R ELISA (R&D Systems catalogue number #DYCI095). 40 μL of cells are seeded (10000 cells/well) in growth medium in Corning black, clear-bottomed 384-well plates and incubated at 37° C., with 5%0/CO2 overnight. […] Plates are incubated for a further 2 h, then following aspiration of medium, 40 μL×lysis buffer is added to each well. Greiner black high bind 384 well plates are coated with capture antibody and then blocked with 3% BSA. Following removal of block, 15 μL of lysate are transferred to the Greiner black high bind 384 well plates and incubated for 2 hours. Following aspiration and washing of the plates with PBS, 20 μL of detection antibody are added and incubated for 2 hours. […] The data obtained with each compound are exported into a suitable software package (such as Origin) to perform curve fitting analysis.

The subject of series [2] is p-EGFR in A431 cells (wild type EGFR, EGF stimulated). Kind of series: Wild type EGFR A431 autophosphorylation inhibition assay (ELISA). It is filed as cell-based, human. The settings on record: Homo sapiens, A-431, cellular EGFR autophosphorylation, 2 h treatment, EGF stimulation 10 min. How it is done:
as §1
Wild Type EGFR A431 Autophosphorylation Inhibition Assay (ELISA).
After 2 hour treatment with test compounds, add 4.5 μL of EGF (1 μg/mL) into each well and stimulate for 10 min. The rest of the procedure was processed in the same manner as described above for H1975 cells.

Series [3] deals with p-EGFR in H1975 cells (L858R/T790M double mutant EGFR). The settings on record: Homo sapiens, NCI-H1975, 2 h, read-out: H1975 IC50 (nM), cellular EGFR autophosphorylation, 2 h treatment, ELISA. (ELISA stands for enzyme-linked immunosorbent assay.)
Description: H1975 cells were cryopreserved in liquid nitrogen. […] Remove the vial from liquid nitrogen and thaw rapidly by placing at 37° C. in a water bath with gentle agitation for 1-2 minutes and then decontaminated by wiping with 70% ethanol before opening in a Class II biological safety cabinet. Transfer the vial contents drop-wise into 10 mL of cell culture medium in a sterile 15 mL conical tube. Then centrifuged the tube at 200× g for 5 minutes and aspirate the supernatant. Re-suspend the cell pellet with 1 mL of fresh cell culture medium and transfer it in to the T75 flask containing cell culture medium.
To passage H1975 cells, firstly, the adherent cells were rinsed with Trypsin/EDTA. Then add Trypsin/EDTA (3 mL for a T75 flask) into the flask and swirl to ensure the cells coated with trypsin evenly. Then incubate the flasks at 37° C. until the cells detach. Add equal volume of cell culture medium to stop the reaction. Collect the detached cells and centrifuged at 200× g for 5 minutes followed by re-suspended in fresh culture medium. Then, the cells were transferred into a new T75 flask containing cell culture medium. Cells were sub-cultured three times per week at a ratio of 1:4 in culture medium.
Harvest cells from flask into cell culture medium and the cell numbers counted using Automated Cell Counter (Thermo Fisher Scientific, Countess™). Dilute the cells into 250,000 cells/mL with culture medium and add 40 μL of cell suspension into each well of 384-well cell culture plate as designated. The final concentration was 10,000 cells/well. The plates were covered with lid and placed in 37° C. 5% CO2 incubator overnight for cell attachment.
On the second day, test compounds were dissolved in DMSO at 10 mM. […] The same volume of DMSO was adopted as high control.
Place the plate back to 37° C. 5% CO2 incubator for 2 hours. Replace the medium of each well with ice-cold HBSS. Then remove the HBSS, add 30 μL cell lysis buffer into each well and shake the plates for 30 mins on a plate shaker. Centrifuge for 5 min at 1,000 rpm to remove bubbles and transfer 25 uL of the lysate supernatant for p-EGFR assay by using a commercial ELISA kit (R&D, DYC1095B-5).
For estimation of IC50, the absorption readout are transformed to % relative activity by applying the following equation
[formula] The IC50 was then calculated by fitting in XLFit (IDBS, Guildford, Surrey) to a four parameters logistic curve.

The term IC50 denotes the concentration that gives 50% inhibition. The term clearance denotes a measure of how efficiently the substance is removed, as volume per time. The low end stands for inefficient removal, the high end for efficient removal. By AUC is commonly meant concentration integrated over time. Higher therefore signals more exposure. As usually defined, the Cmax is the maximum level reached in the sampled fluid or tissue.

“And” between values parts separate entries of the source, which are not always exact repeats. Equal values may be shown once. Where a name gives a salt, the structure may show the parent alone.

T2 sequence (P06213 989-1382 limits assumed): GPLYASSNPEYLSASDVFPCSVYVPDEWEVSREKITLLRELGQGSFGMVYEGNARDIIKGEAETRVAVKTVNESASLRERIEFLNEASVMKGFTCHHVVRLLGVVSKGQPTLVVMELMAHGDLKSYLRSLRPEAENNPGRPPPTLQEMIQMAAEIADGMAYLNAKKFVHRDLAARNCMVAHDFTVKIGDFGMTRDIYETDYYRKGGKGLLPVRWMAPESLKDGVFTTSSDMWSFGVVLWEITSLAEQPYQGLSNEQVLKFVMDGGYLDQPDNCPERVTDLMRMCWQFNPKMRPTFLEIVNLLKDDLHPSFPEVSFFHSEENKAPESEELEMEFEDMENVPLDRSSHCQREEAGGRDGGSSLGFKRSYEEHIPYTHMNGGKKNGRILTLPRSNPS
T1 sequence (P08069 959-1367 limits assumed): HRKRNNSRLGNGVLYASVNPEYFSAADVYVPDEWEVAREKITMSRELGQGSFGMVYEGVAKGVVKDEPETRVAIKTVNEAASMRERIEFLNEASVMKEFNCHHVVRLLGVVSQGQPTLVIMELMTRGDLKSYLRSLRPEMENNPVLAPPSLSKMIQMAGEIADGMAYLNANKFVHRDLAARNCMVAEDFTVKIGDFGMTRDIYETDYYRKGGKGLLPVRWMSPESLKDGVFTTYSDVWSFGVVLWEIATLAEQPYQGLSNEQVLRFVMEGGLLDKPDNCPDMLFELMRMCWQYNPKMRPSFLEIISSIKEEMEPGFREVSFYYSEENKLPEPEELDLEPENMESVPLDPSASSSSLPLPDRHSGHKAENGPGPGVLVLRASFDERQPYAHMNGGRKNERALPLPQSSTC

`C=CC(=O)Nc1cc(Nc2nccc(-n3nc(NC)c4ccccc43)n2)c(OC)cc1N(C)CCN(C)C` [Example 21, N-(2-((2-(Dimethylamino)ethyl)(methyl)amino)-4-methoxy-5-(4-(3-(methylamino)-1H-indazol-1-yl)pyrimidin-2-ylamino)phenyl) acrylamide]: the 50% inhibitory concentration (IC50) with PC9 cells (SM) (Homo sapiens, PC-9, 72 h) was 2.54 nM; in the series on PC9 cells (SM) (72 h), 2.33 nM and 4.49 nM; in the series on H1975 cells (DM) (Homo sapiens, NCI-H1975, 72 h), 2.37 nM; in the series with H1975 cells (DM) (72 h), 2.01 nM and 2.9 nM; against IGF-1R, 180 nM; against INSR it was 134 nM. For the same compound, the F in the series “Mouse in vivo PK study” is recorded as 27.2%. This compound also returned a clearance in the series “Mouse in vivo PK study” of 163 mL/min/kg. For the same compound, the half-life in “Mouse in vivo PK study” was 0.73 h. Further, the AUC in “Mouse in vivo PK study” came out at 282 ng·h/mL. Also, the concentration in the series “Mouse in vivo PK study” peaked (Cmax) at 86 ng/mL.

Consider `C=CC(=O)Nc1cc(Nc2nccc(-c3cc(C(N)=O)cc4c3ccn4C)n2)c(OC)cc1N(C)CCN(C)C` [Example 34, 4-(2-((5-Acrylamido-4-((2-(dimethylamino)ethyl)(methyl)amino)-2-methoxyphenyl)amino)pyrimidin-4-yl)-1N-methyl-1H-indole-6-carboxamide hydrochloride], for which the concentration for half-maximal inhibition (IC50) was 7.23 nM with PC9 cells (SM) (Homo sapiens, PC-9, 72 h); 10.9 nM with PC9 cells (SM) (72 h, hydrochloride); 4.62 nM in the series with H1975 cells (DM) (Homo sapiens, NCI-H1975, 72 h); 3.23 nM with H1975 cells (DM) (72 h, hydrochloride); 1770 nM with A431 cells (WT) (Homo sapiens, A-431, 72 h); 928 nM in the series with A431 cells (WT) (72 h, hydrochloride). The IC50 stood at 7.14 nM in series [1]; 400 nM in series [2]; 470 nM at IGF-1R; 514 nM against INSR; 2.19 nM in series [3]. This compound returned a F in “Mouse in vivo PK study” of 10.3%. The clearance in the series “Mouse in vivo PK study” came to 110 mL/min/kg. In “Mouse in vivo PK study”, the half-life is 1.11 h. Besides, in the series “Mouse in vivo PK study”, the AUC was determined as 165 ng·h/mL. The compound also displayed a Cmax in “Mouse in vivo PK study” of 58 ng/mL.

As for `C=CC(=O)Nc1cc(Nc2nccc(-n3nc(N(C)C)c4ccccc43)n2)c(OC)cc1N(C)CCN(C)C` [Example 42, N-(5-((4-(3-(Dimethylamino)-1H-indazol-1-yl)pyrimidin-2-yl)amino)-2-((2-(dimethylamino)ethyl)(methyl)amino)-4-methoxyphenyl) acrylamide], the IC50 in the series with PC9 cells (SM) (Homo sapiens, PC-9, 72 h) turned out to be 2.29 nM; with H1975 cells (DM) (Homo sapiens, NCI-H1975, 72 h) it was 2.37 nM; with A431 cells (WT) (Homo sapiens, A-431, 72 h), 396 nM; in series [1], 3.69 nM; in [2] it was 66.3 nM; against IGF-1R, 337 nM. For the same compound, the IC50 was 366 nM against INSR and 4.19 nM in series [3]. Moreover, the F in the series “Mouse in vivo PK study” came to 42.1%. This compound yielded a clearance in “Mouse in vivo PK study” of 97 mL/min/kg. In addition, the half-life in “Mouse in vivo PK study” is 1.32 h. The same compound displayed an AUC in “Mouse in vivo PK study” of 677 ng·h/mL. In the series “Mouse in vivo PK study”, this compound gave a Cmax of 176 ng/mL.
